Experimental data: patent publication US20230174660A1, “USE OF A MULTIMERIC ANTI-DR5 BINDING MOLECULE IN COMBINATION WITH A CANCER THERAPY FOR TREATING CANCER” (IGM Biosciences, Inc., priority 2020, published 2023)

How the values were obtained:
[1] = test system: EBC-1; test: Cell Titer Glo viability, Mab A + SMAC mimetics (Example 13); format: cell-based; conditions: SMAC mimetic in combination with Mab A
Protocol: (§1) Synergy was determined as described in earlier examples. The average Bliss synergy scores for combinations of Mab A and SMAC mimetic on the various tumor cell lines are shown in Table 15.

[2] = test system: SK-MEL-5; test: as above; format: cell-based; conditions: SMAC mimetic in combination with Mab A
Protocol: as §1

[3] = test system: HCT 116; test: as above; format: cell-based; conditions: SMAC mimetic in combination with Mab A
Protocol: as §1

[4] = test system: SW1353; test: as above; format: cell-based; conditions: SMAC mimetic in combination with Mab A
Protocol: as §1

[5] = test system: OVCAR-4; test: as above; format: cell-based; conditions: SMAC mimetic in combination with Mab A
Protocol: as §1

[6] = test system: HT 1080; test: as above; format: cell-based; conditions: SMAC mimetic in combination with Mab A
Protocol: as §1

[7] = test system: DR5 agonist-resistant MDA-MB-231 cells; test: Cell Titer Glo viability, Mab A + SMAC mimetic on DR5 agonist-resistant tumor cells (Example 8); format: cell-based
[8] = test system: EBC-1 tumor cells; test: EBC-1 non-small cell lung cancer (NSCLC) model (Example 11); format: in vivo, mice; conditions: birinapant 30 mg/kg i.p. every 3 days, alone or with Mab A 5 mg/kg i.v.; n=10 animals/group
Excerpt: 3×10^6 EBC-1 tumor cells were implanted subcutaneously in the flanks of female BALB/c nude mice.

[9] = test system: SA3840 tumor fragments; test: SA3840 osteosarcoma PDX model (Example 11); format: in vivo, mice; conditions: birinapant 30 mg/kg i.p., alone or with Mab A 5 mg/kg i.v.; n=5 animals/group
[10] = test system: SNU-1; test: Cell Titer Glo viability, Mab A + birinapant (Example 10); format: cell-based; conditions: SNU-1 (Gastric)
Protocol: (§2) Cell viability curves for combinations of anti-DR5 IgM Mab A with birinapant on A2058, BT-20, DV-90, ES-2, HCC15, HCT 116, HT 1080, KYSE 410, MEWO, OVCAR-5, SK-LU-1, SK-MEL-5, SNU-1, SW780, SW1353, and T24 are shown in FIGS. 19A, 19C, 19E, 19G, 19I, 19K, 19M, 19O, 19Q, 19S, 19U, 19W, 19Y, 19AA, 19AC, and 19AE, respectively. Synergy was determined as described in earlier examples.

[11] = test system: ES-2; test: as above; format: cell-based; conditions: ES-2 (Ovarian)
Protocol: as §2

[12] = test system: BT-20; test: as above; format: cell-based; conditions: BT-20 (TNBC)
Protocol: as §2

[13] = test system: KYSE 410; test: as above; format: cell-based; conditions: KYSE 410 (Esophageal)
Protocol: as §2

[14] = test system: HCT 116; test: as above; format: cell-based; conditions: HCT 116 (Colorectal)
Protocol: as §2

[15] = test system: A2058; test: as above; format: cell-based; conditions: A2058 (Melanoma)
Protocol: as §2

[16] = test system: SW780; test: as above; format: cell-based; conditions: SW780 (Bladder)
Protocol: as §2

[17] = test system: HCC15; test: as above; format: cell-based; conditions: HCC15 (Lung)
Protocol: as §2

[18] = test system: MEWO; test: as above; format: cell-based; conditions: MEWO (Melanoma)
Protocol: as §2

[19] = test system: T24; test: as above; format: cell-based; conditions: T24 (Bladder)
Protocol: as §2

[20] = test system: OVCAR-5; test: as above; format: cell-based; conditions: OVCAR-5 (Ovarian)
Protocol: as §2

[21] = test system: SW1353; test: as above; format: cell-based; conditions: SW1353 (Chondrosarcoma)
Protocol: as §2

[22] = test system: HT 1080; test: as above; format: cell-based; conditions: HT 1080 (Fibrosarcoma)
Protocol: as §2

[23] = test system: MDA-MB-231 tumor cells; test: Cell Titer Glo viability, Mab A + SMAC mimetic (Example 7); conditions: MDA-MB-231 cells; 72 hours
[24] = test system: KYSE-70; test: Cell Titer Glo viability, Mab A + birinapant, head and neck tumor cell lines (Example 12); format: cell-based; conditions: KYSE-70 head and neck cancer cell line
Protocol: (§3) Exemplary cell viability curves for combinations of anti-DR5 IgM Mab A with birinapant on Detroit 562 and KYSE270 are shown in FIGS. 22A and 22C, respectively. Synergy was determined as described in earlier examples. […] The Average Bliss synergy scores for combinations of Mab A and birinapant on the various head and neck tumor cell lines are shown in Table 14.

[25] = test system: Detroit 562; test: as above; format: cell-based; conditions: Detroit 562 head and neck cancer cell line
Protocol: as §3

[26] = test system: 8505C; test: as above; format: cell-based; conditions: 8505C head and neck cancer cell line
Protocol: as §3

[27] = test system: KYSE410; test: as above; format: cell-based; conditions: KYSE410 head and neck cancer cell line
Protocol: as §3

[28] = test system: KYSE150; test: as above; format: cell-based; conditions: KYSE150 head and neck cancer cell line
Protocol: as §3

[29] = test system: TE-1; test: as above; format: cell-based; conditions: TE-1 head and neck cancer cell line
Protocol: as §3

[30] = test system: A253; test: as above; format: cell-based; conditions: A253 head and neck cancer cell line
Protocol: as §3

[31] = test system: 8305C; test: as above; format: cell-based; conditions: 8305C head and neck cancer cell line
Protocol: as §3

[32] = test system: FaDu; test: as above; format: cell-based; conditions: FaDu head and neck cancer cell line
Protocol: as §3

[33] = test system: KYSE270; test: as above; format: cell-based; conditions: KYSE270 head and neck cancer cell line
Protocol: as §3

[34] = test system: OE19; test: as above; format: cell-based; conditions: OE19 head and neck cancer cell line
Protocol: as §3

CC[C@H](NC(=O)[C@H](C)NC)C(=O)N1C[C@@H](O)C[C@H]1Cc1c(-c2[nH]c3cc(F)ccc3c2C[C@@H]2C[C@H](O)CN2C(=O)[C@H](CC)NC(=O)[C@H](C)NC)[nH]c2cc(F)ccc12 [birinapant, Birinapant]
Average Bliss score [1]: 39 | Average Bliss score [2]: 14 | Average Bliss score [3]: 31 | Average Bliss score [4]: −0.6 | Average Bliss score [5]: 14 | Average Bliss score [6]: 30 | single agent cytotoxicity (cell viability curves) [7]: little to no cytotoxicity | mice that missed doses due to body weight loss [8]: 3 mice | animals that missed doses due to body weight loss [9]: 1 animal | Avg Bliss score [10]: 39 | Avg Bliss score [11]: 19 | Avg Bliss score [12]: 4 | Avg Bliss score [13]: 42 | Avg Bliss score [14]: 36 | Avg Bliss score [15]: 49 | Avg Bliss score [16]: 35 | Avg Bliss score [17]: 41 | Avg Bliss score [18]: 26 | Avg Bliss score [19]: 38 | Avg Bliss score [20]: 17 | Avg Bliss score [21]: 18 | Avg Bliss score [22]: 45 | single agent cytotoxicity (cell viability curves) [23]: little to no cytotoxicity | Average Bliss score [24]: 25 | Average Bliss score [25]: 36 | Average Bliss score [26]: 10 | Average Bliss score [27]: 35 | Average Bliss score [28]: 0.2 | Average Bliss score [29]: 29 | Average Bliss score [30]: 26 | Average Bliss score [31]: 27 | Average Bliss score [32]: 16 | Average Bliss score [33]: 15 | Average Bliss score [34]: 17
